Laboratory results as given in PMC4672351, “Drug-Drug Interaction Potentials of Tyrosine Kinase Inhibitors via Inhibition of UDP-Glucuronosyltransferases” (Scientific Reports, 2015).

Molecular target: T1, UGT1A4 (Homo sapiens, UniProt P22310)
T1 sequence (P22310 29-534): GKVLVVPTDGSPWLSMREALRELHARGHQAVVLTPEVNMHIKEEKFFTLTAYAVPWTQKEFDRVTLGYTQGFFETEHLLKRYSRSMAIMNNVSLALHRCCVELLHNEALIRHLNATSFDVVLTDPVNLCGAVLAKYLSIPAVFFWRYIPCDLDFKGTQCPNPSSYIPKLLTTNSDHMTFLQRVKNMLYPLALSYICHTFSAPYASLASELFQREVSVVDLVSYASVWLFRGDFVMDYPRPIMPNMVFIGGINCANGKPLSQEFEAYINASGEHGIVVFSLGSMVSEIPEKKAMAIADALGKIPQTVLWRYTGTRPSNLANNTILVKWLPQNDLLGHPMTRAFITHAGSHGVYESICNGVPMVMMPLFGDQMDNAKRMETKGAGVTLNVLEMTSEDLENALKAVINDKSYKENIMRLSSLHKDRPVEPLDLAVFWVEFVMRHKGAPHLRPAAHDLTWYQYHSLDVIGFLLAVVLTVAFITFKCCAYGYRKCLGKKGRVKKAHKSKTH
Test: Prediction of DDI risk (AUCi/AUC) from in vitro data, UGT1A4 substrates
Set-up: purchased BD Gentest (Woburn, MA); host or cells: baculovirus-infected insect cells
Conditions: fm is 1
Procedure: The ratio was calculated based on the eq.

Compound: CNC(=O)c1ccccc1Sc1ccc2c(/C=C/c3ccccn3)n[nH]c2c1 [Axitinib, axitinib]
- Predicted AUCi/AUC ratio of UGT1A4 substrates: ~1
